The EC50 is the concentration at which the effect is half-maximal.

Structures are written as SMILES. Structures can show the parent of a compound that is named as a salt. Where two headings read alike, the source gives them in different places. Some results are limits rather than exact numbers.

Series [1] relates to EBOV mucin-domain-deleted glycoprotein pseudotyped VSV. The series is described as follows: microbe, parasite or virus in culture. Format: cell-based, Zaire ebolavirus. As to conditions: Zaire ebolavirus, Vero, read-out: EC50 EBOV.
Series [2] has as its system BDBV mucin-domain-deleted glycoprotein pseudotyped VSV. Kind of series: microbe, parasite or virus in culture. Format: cell-based, Bundibugyo ebolavirus. The settings on record: Vesicular stomatitis virus, Vero, read-out: EC50 BDBV.
A short description of another series: in vitro. As to conditions: African green monkey, CC50.

`CC(NC(=O)C1CCCN1)C12CC3CC(CC(C3)C1)C2` (stereo in doubt) [Example D43, (2R)-N-[1-(adamantan-1-yl)ethyl] pyrrolidine-2-carboxamide]: the EC50 came to 4600 nM in series [1] (24 h) and 2500 nM in series [2] (24 h).
Regarding `O=C(N1CCC2(CCN(Cc3ccccc3)C2)C1)C12CC3CC(C1)CC(c1ccccc1)(C3)C2` (stereo not drawn) [Example A1, 2-benzyl-7-[(3-phenyladamantan-1-yl)carbonyl]-2,7-diazaspiro[4.4]nonane], the EC50 was 220 nM in series [1] and 250 nM in series [2]. The compound further showed a CC50 in the series “in vitro” of 5800 nM.
The matching figures for `O=C(CNC(=O)C12CC3CC(C1)CC(c1ccccc1)(C3)C2)N1CCC2(CCN(Cc3ccccc3)C2)C1` (stereo not drawn) [Example A2]: 300 nM, 390 nM and 8500 nM.
Consider `COC(=O)c1ccc(COc2ccccc2CN2CCN(C(=O)CNC(=O)C34CC5CC(C3)CC(c3ccccc3)(C5)C4)CC2)cc1` [Example A3], for which the results for the EC50 in series [1] and in series [2] were 30 nM and 1240 nM, respectively. The CC50 in the series “in vitro” is greater than 3000 nM.
Regarding `COC(=O)c1ccc(COc2ccccc2CN2CCN(C(=O)CNC(=O)CC34CC5CC(C3)CC(c3ccccc3)(C5)C4)CC2)cc1` [Example A4], the EC50 in series [1] stood at 190 nM; in series [2], 1240 nM. The same compound displayed a CC50 in “in vitro” greater than 3000 nM.
For `O=C(CC12CC3CC(C1)CC(c1ccccc1)(C3)C2)NCC(=O)N1CCC2(CCN(Cc3ccccc3)C2)C1` (stereo not drawn) [Example A11], the 50% effective concentration (EC50) in series [1] is 200 nM; in series [2], 230 nM.
On the same counts, the results for `O=C(CNC(=O)C12CC3CC(CC1C3)C2)N1CCN(Cc2ccccc2)CC1` [Example A18] are greater than 10000 nM and greater than 10000 nM.
As to `O=C(NC1CCN(Cc2ccccc2)CC1)C12CC3CC(CC1C3)C2` [Example A21], the EC50 in series [1] and in series [2] was greater than 10000 nM each time.
Turning to `CN(CCN(C)C(=O)C12CC3CC(C1)CC(c1ccccc1)(C3)C2)Cc1ccccc1` [Example A22], the EC50 in series [1] came to 260 nM; in series [2], 220 nM.
For the compound `CN(C(=O)C12CC3CC(C1)CC(c1ccccc1)(C3)C2)C1CCN(Cc2ccccc2)CC1` [Example A23], the EC50 in series [1] came out at 210 nM; in series [2], 170 nM.
As to `CN1CC[C@@H](NC(=O)CC23CC4CC(C2)CC(c2ccccc2)(C4)C3)C1` [Example A40], the EC50 in series [1] turned out to be 310 nM; in series [2] it was 160 nM.
The matching figures for `O=C(CC12CC3CC(CC(C3)C1)C2)N1CC2CC1CN2Cc1ccccc1` (stereo not drawn) [Example A53]: 9200 nM and 9000 nM.
Take `COC(=O)c1ccc(COc2ccccc2CN2CC3CC2CN3C(=O)CC23CC4CC(CC(C4)C2)C3)cc1` (stereo not drawn) [Example A57]: the results for the EC50 in series [1] and in series [2] were 2900 nM and greater than 10000 nM, respectively.
In the case of `COC(=O)c1ccc(COc2ccccc2CN2CCC3(CCN(C(=O)CNC(=O)CC45CC6CC(CC(C6)C4)C5)C3)C2)cc1` (stereo not drawn) [Example A59], the EC50 in series [1] turned out to be 1100 nM; in series [2] it was 1500 nM.
As for `O=C(NC1CCNCC1)C12CC3CC(C1)CC(c1ccc([N+](=O)[O-])cc1)(C3)C2` [Example A76], the EC50 in series [1] came to 1050 nM; in series [2], 1060 nM.
The matching figures for `CC12CC3CC(C(=O)NCC4(O)CNC4)(C1)CC(c1ccccc1)(C3)C2` (stereo not drawn) [Example A101]: greater than 1000 nM and greater than 1000 nM.
The matching figures for `COC(=O)[C@H]1CN(C(=O)C23CC4CC(C)(C2)CC(c2ccccc2)(C4)C3)CCN1` (stereo partly drawn) [Example A106]: greater than 1000 nM and greater than 1000 nM.
Consider `CCOC12CC3CC(C1)CC(C(=O)NC1CCNCC1)(C3)C2` [Example A113], for which the EC50 in series [1] and in series [2] was greater than 1000 nM each time.
Regarding `N[C@H]1CC[C@H](NC(=O)C23CC4CC(C(=O)N5CCCC5)(C2)CC(c2ccccc2)(C4)C3)CC1` (stereo partly drawn) [Example A114], the EC50 in series [1] and in series [2] was greater than 1000 nM each time.
Take `N[C@H]1CC[C@H](NC(=O)C23CC4CC(CO)(C2)CC(c2ccccc2)(C4)C3)CC1` (stereo partly drawn) [Example A116, trans-N-(4-aminocyclohexyl)-3-(hydroxymethyl)-5-phenyladamantane-1-carboxamide]: the EC50 in series [1] and in series [2] was greater than 1000 nM each time.
Consider `CCN1CCN(C(=O)C23CC4CC(C2)CC(c2ccc(C)cc2)(C4)C3)CC1` [Example B16, 1-ethyl-4-{[3-(4-methylphenyl)adamantan 1-yl]carbonyl} piperazine], for which the results for the EC50 in series [1] (24 h) and in series [2] (24 h) were 1000 nM and 900 nM, respectively.
Consider `CC(C)C(NC(=O)C12CC3CC(CC(C3)C1)C2)C(=O)NC1CCN(Cc2ccccc2)CC1` (stereo not drawn) [Example B17, 2-(adamantan-1-ylformamido)-N-(1-benzylpiperidin-4-yl)-3-methylbutanamide], for which the EC50 in series [1] (24 h) is greater than 5000 nM; in series [2] (24 h), less than 5000 nM.
For `Cc1ccc(C23CC4CC(CC(C(=O)N5CCN(CCO)CC5)(C4)C2)C3)cc1` [Example B18, 2-(4-{[3-(4-methylphenyl)adamantan-1-yl]carbonyl}piperazin-1-yl)ethan-1-ol], the half-maximal effective concentration (EC50) in series [1] (24 h) and in series [2] (24 h) was greater than 5000 nM each time.
`O=C(NC1CCNCC1)C12CC3CC(CC(C3)C1)C2` [Example B19, N-(piperidin-4-yl)adamantane-1-carboxamide]: the EC50 in series [1] (24 h) was 1100 nM; in series [2] (24 h) it was greater than 1000 nM.
Regarding `NCc1ccc(OCC23CC4CC(C2)CC(c2ccccc2)(C4)C3)cc1` [Example C17, {4-[(3-phenyladamantan-1-yl)methoxy]phenyl}methanamine], the values for the EC50 in series [1] and in series [2] were greater than 1000 nM and 1200 nM, respectively.
For `COc1ccc(OCC(O)CNCC23CC4CC(CC(C4)C2)C3)c(C(C)(C)C)c1` (stereo not drawn) [Example D2, (adamantan-1-ylmethyl) [3-(2-tert-butyl-4-methoxyphenoxy)-2-hydroxypropyl]amine], the EC50 in series [1] (24 h) came out at 680 nM; in series [2] (24 h), 620 nM.
Regarding `CCC(NCC(O)COc1ccccc1C(C)C)C12CC3CC(CC(C3)C1)C2` (stereo not drawn) [Example D3], the EC50 in series [1] (24 h) turned out to be 1290 nM.
Turning to `COc1cccc(COCC(O)CNCC23CC4CC(CC(C4)C2)C3)c1` (stereo not drawn) [Example D6], the EC50 is 3450 nM in series [1] (24 h) and 1500 nM in series [2] (24 h).
Consider `O=C(CN1CCN(CCC23CC4CC(CC(C4)C2)C3)CC1)N1CCCCC1` [Example D7, 2-{4-[2-(adamantan-1-yl)ethyl]piperazin-1-yl}-1-(piperidin-1-yl) ethan-1-one], for which the EC50 came to 6000 nM in series [1] (24 h) and 2600 nM in series [2] (24 h).
Consider `CCC1CCCCN1CC(O)COCCC12CC3CC(CC(C3)C1)C2` (stereo not drawn) [Example D9, 1-[2-(adamantan-1-yl)ethoxy]-3-(2-ethylpiperidin-1-yl)propan-2-ol hydrochloride], for which the EC50 in series [1] (24 h) turned out to be 250 nM; in series [2] (24 h), 210 nM.
On to `OC(COCCC12CC3CC(CC(C3)C1)C2)CN1CCc2ccccc2C1` (stereo not drawn) [Example D14, 1-[2-(adamantan-1-yl)ethoxy]-3-(1,2,3,4-tetrahydroisoquinolin-2-yl) propan-2-ol], for which the EC50 in series [1] (24 h) turned out to be 2100 nM; in series [2] (24 h), 2670 nM.
The matching figures for `OC(COCCC12CC3CC(CC(C3)C1)C2)CN1CCN(c2ccccn2)CC1` (stereo not drawn) [Example D15, 1-[2-(adamantan-1-yl)ethoxy]-3-[4-(pyridin-2-yl)piperazin-1-yl] propan-2-ol]: 2900 nM and 2800 nM.
On to `OCCN(CCO)CC(O)COCCC12CC3CC(CC(C3)C1)C2` (stereo not drawn) [Example D17, 2-({3-[2-(adamantan-1yl)ethoxy]-2-hydroxypropyl}(2-hydroxyethyl)amino)ethan-1-ol], for which the EC50 was 8800 nM in series [1] (24 h) and 600 nM in series [2] (24 h).
As to `OC(COC12CC3CC(CC(C3)C1)C2)CN1CCc2ccccc2C1` (stereo not drawn) [Example D18, 1-(adamantan-1-yloxy)-3-(1,2,3,4-tetrahydroisoquinolin-2-yl)propan-2-ol], in series [1] (24 h), the EC50 is greater than 10000 nM.
Turning to `COc1ccccc1N1CCN(CC(O)COC23CC4CC(CC(C4)C2)C3)CC1` (stereo not drawn) [Example D19, 1-(adamantan-1-yloxy)-3-[4-(2-methoxyphenyl)piperazin-1-yl] propan-2-ol], the EC50 in series [1] (24 h) was greater than 10000 nM.
`CC1CCCCN1CC(O)COC12CC3CC(CC(C3)C1)C2` (stereo not drawn) [Example D20, 1-(adamantan-1-yloxy)-3-(2-methylpiperidin-1-yl)propan-2-ol]: the EC50 in series [1] (24 h) was greater than 10000 nM.
In the case of `CN1CCCN(CC(O)COc2ccc(C34CC5CC(CC(C5)C3)C4)cc2)CC1` (stereo not drawn) [Example D30, 1-[4-(adamantan-1-yl)phenoxy]-3-(4-methyl-1,4-diazepan-1-yl)propan-2-ol], the EC50 in series [1] (24 h) is 190 nM; in series [2] (24 h), 470 nM.
In the case of `OC(COc1ccc(C23CC4CC(CC(C4)C2)C3)cc1)CN1CCN(Cc2ccc3c(c2)OCO3)CC1` (stereo not drawn) [Example D31, 1-[4-(adamantan-1-yl)phenoxy]-3-[4-(2H-1,3-benzodioxo1-5-ylmethyl)piperazin-1-yl]propan-2-ol], the figures for the EC50 in series [1] (24 h) and in series [2] (24 h) were 230 nM and 1030 nM, respectively.
`CN(C)CCNS(=O)(=O)c1ccc(C23CC4CC(CC(C4)C2)C3)cc1` [Example D33, 4-(adamantan-1-yl)-N-[2-(dimethylamino)ethyl] benzene-1-sulfonamide]: the EC50 was 440 nM in series [1] (24 h) and 420 nM in series [2] (24 h).
The matching figures for `CN1CCN(c2nc(C34CC5CC(CC(C5)C3)C4)cs2)CC1` [Example D35, 1-[4-(adamantan-1-yl)-1,3-thiazol-2-yl]-4-methylpiperazine]: 440 nM and 620 nM.
On the same counts, the results for `c1ccn2c(CN3CCCCC3)c(C34CC5CC(CC(C5)C3)C4)nc2c1` [Example D37] are 8900 nM and 3200 nM.
Turning to `C#CCN1CCC(C(=O)Nc2cc(C34CC5CC(CC(C5)C3)C4)n[nH]2)CC1` [Example D38, N-[5-(adamantan-1-yl)-1H-pyrazol-3-yl]-1-(prop-2-yn-1-yl) piperidine-4-carboxamide], the results for the EC50 in series [1] (24 h) and in series [2] (24 h) were 3700 nM and 6800 nM, respectively.

The record behind these values is US12240857B2 (priority 2017, dated 2025).
